This is an account of results in US8686224B2, “Plant defense signal peptides” (priority 2005, dated 2014).

Entries after “also recorded” stand apart in the source; their conditions may differ.

For the experiment, the system named is defense gene expression in excised Arabidopsis leaves. The experiment in a line: Excised-leaf assay, semi-quantitative RT-PCR of gene expression. The format is in vivo, Arabidopsis thaliana. As for the experimental part: Excised-leaf assays. AtPep1 peptide dissolved in double distilled water was supplied to excised leaves of 3 to 4 week old Arabidopsis plants. Leaves were excised and the petioles were immersed in 800 μL centrifuge tubes containing either the peptide solution or distilled water, and placed in a closed clear plexiglass box containing a thin layer of water for humidity, and a small opening to allow air to enter. Boxes were incubated in a growth chamber under the plant growth conditions described above and sprayed with a fine mist of distilled water every half hour to ensure humidity and prevent wilting. To determine variations in basal levels of the AtproPep1 transcript among assays, four different leaves from four different plants were used for each treatment, and leaves supplied with either water or AtPep1 were taken from the same plants. Assays were terminated by immersing the leaves in liquid nitrogen.
Semi-quantitative RT-PCR analysis of relative gene expression levels. RNA was isolated using Trizol reagent and manufacturer's instructions (Invitrogen. Carlsbad Calif.), and 2 μg of RNA template was reverse transcribed with a RETROscript kit (Ambion, Austin Tex.). PCR reactions were carried out with ExTaq Hot Start polymerase and reagents (Fisher Scientific, Pittsburgh Pa.). The AtproPep1 forward and reverse primers with the respective sequences of 5′ […] 3′ (SEQ ID NO: 59) and 5′ […] 3′ (SEQ ID NO: 60) generated a 310 bp intron-spanning product. Primers to β-tubulin (At5g62690) of 5′ […] 3′ (SEQ ID NO: 73) and 5′ […] 3′ (SEQ ID NO: 74) generated a 681 base pair intron-spanning product. An initial denaturing/polymerase activating step of 5 minutes at 94° C. was followed by 31 repetitions of the following three steps: a thirty second denaturation phase at 94° C., a thirty second annealing period at 55.5° C., and a one minute elongation step at 72° C. The amplification program was terminated with a 10 minute final 72° C. elongation phase.
The products of each reaction were separated by electrophoresis and were visualized on a Bio Imaging System (SynGene, Frederick Md.) using GeneSnap version 6.00.26 software (SynGene, Frederick Md.). A high resolution image of the gel was analyzed using GeneTools analysis software version 3.02.00 (SynGene, Frederick Md.). Relative band intensities for each band were normalized to the β-tubulin band. A numerical ratio of amplified AtproPep1 cDNA to amplified tubulin cDNA was obtained for every sample. To calculate average values, semi-quantitative RT-PCR assays were performed in duplicate, and RNA extractions were performed in triplicate.
Analysis of gene expression using RT-PCR. Gene expression was analyzed using RT-PCR (Nishimura et al., Plant Cell 16:1365-1377, 2004).
Expression analysis of AtproPep1 in response to abiotic and biotic cues. As a first step in seeking a possible function for AtproPep1 and its encoded peptide, the basal expression level of the gene was assessed in leaves, stems, roots and flowers of Arabidopsis plants was studied using semi-quantitative RT-PCR analysis of AtproPep1 gene expression in response to treatment of leaves with MeJA, ethephon, MeSA, and AtPep1. The relative abundance of the proAtPep1 transcript was estimated from the expression of the β-tubulin gene as a control. Leaves were wounded by crushing once across the mid-vein with a hemostat. Plants were sprayed with a 250 μM solution of MeJA in 0.1% Triton X-100; with a 2 μM solution of MeSA in 0.1% Triton X-100 or with a 7 mM solution of ethephon in 0.1% Triton X-100. AtPep1 peptide (10 nM in water) was supplied through cut petioles of excised leaves. Total RNA was extracted and analyzed.
In order to determine whether AtPep1 regulates defense gene expression, we determined the fold induction of defense related genes in excised Arabidopsis leaves in response to 10 nM AtPep1 supplied through their cut petioles. […]

Turning to H-ATKVKAKQRGKEKVSSGRPGQHN-OH [AtPep1], the “expression of the AtproPep1 gene” value (10 nM through cut petioles of excised leaves, within two hours) is given as “induced expression”. In addition, for the setting “10 nM through cut petioles, 2 hr, wild type”, the “expression of PDF1.2 and PR-1” value is recorded as “most strongly expressed; also recorded: induced a strong expression”. In addition, the “expression of AtproPep1, PDF1.2 or PR-1 in mutants” value (10 nM, 2 hr, triple mutant fad3-2, fad7-2, fad8 and mutant ein2-1) is recorded as “did not induce”. Further, under “10 nM, two hours, wild type”, the “expression of LOX2 and VSP2” value is “not induced”; the “expression of PR-3, PR-4 and TAT” value is on record as “expressed at lower levels”. Moreover, for the setting “supplied through cut petioles of excised leaves”, the “expression of At5g64905, At5g64900, At5g64890 and At5g09980” value is “expressed relatively strongly”.
